Source: US11325907B2, “Crystal form of 1H-imidazo[4,5-b]pyridine-2(3H)-one compound and preparation process therefor” (MEDSHINE DISCOVERY INC., priority 2018, dated 2022)

How the values were obtained:
Assay type in all cases: physicochemical
[1] = Solid stability test under accelerated conditions (40° C./Relative Humidity 75%, sealed); settings: 6th month
[2] = Hygroscopicity test (Dynamic Vapor Sorption); settings: 25° C. and 80% RH, DVS
Method: Device: SEM Advantage-1 Dynamic Vapor Sorption apparatus
Testing conditions: The sample (10-20 mg) is placed in DVS sample disk for testing.
Balance: dm/dt=0.01%/min (min: 10 min, max: 180 min)
Drying: drying at 0% RH for 120 min
RH (%) testing gradient: 10%
RH (%) testing gradient range: 0% -90%-0%
The hygroscopicity is categorized as follows:
SEM DVS Advantage-1 Dynamic Vapor Sorption instrument

[3] = Stability tests of Crystal Form A in different solvents; settings: for Status (after 2 days): 50 mg, stirred at 40° C. for 2 days
Method: The solids in all samples were collected and dried in vacuum drying oven (40° C.) overnight. The crystal forms were tested for XRPD.

[4] = Batch 1, 40° C./Relative Humidity 75%
[5] = Batch 3, 40° C./Relative Humidity 75%

Appearance [1, 4]: White powder
Crystal Form (XRPD) [1, 4]: Crystal Form A
Appearance [1, 5]: White powder
Crystal Form (XRPD) [1, 5]: Crystal Form A
Hygroscopic Category [2]: no or little hygroscopicity
ΔW (hygroscopic weight gain) [2]: 0.08%
Status (after 2 days) ([3]; Acetone 0.4 mL): Suspension
Status (after 2 days) ([3]; Acetone:Water (1:2) 0.4 mL): Suspension
Status (after 2 days) ([3]; Acetonitrile 0.4 mL): Suspension
Status (after 2 days) ([3]; Acetonitrile:Water (1:1) 0.4 mL): Suspension
Status (after 2 days) ([3]; Ethanol 0.4 mL): Suspension
Status (after 2 days) ([3]; Ethanol:Water (3:1) 0.4 mL): Suspension
Status (after 2 days) ([3]; Ethyl Acetate 0.4 mL): Suspension
Status (after 2 days) ([3]; Methanol 0.4 mL): Suspension
Status (after 2 days) ([3]; Methanol:Water (3:1) 0.4 mL): Suspension
Status (after 2 days) ([3]; Tetrahydrofuran 0.3 mL): Suspension
Stability in solvents (conclusion) ([3]; alcohol solvent, acetonitrile, acetone, ethyl acetate, tetrahydrofuran and mixed solvents with water): good stability
SMILES: CCOc1cc([C@@H](CS(C)(=O)=O)n2c(=O)[nH]c3c(C)c(-c4ccccc4F)cnc32)ccc1OC [Crystal Form A of Compound 1]
